# Results taken from PubChem BioAssay (NCI).
#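 Exposure lasted 48 hours, with cells grown in 96-well plates and compounds tested at five concentrations. Abbreviation: GI50, concentration required for 50% inhibition of growth. TGI marks complete inhibition of growth.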
# Tests used:
# Assay in all cases: DTP human tumour cell line panel, 48 h
# OVCAR-3 ovarian = test system: OVCAR-3 ovarian
# MCF7 breast = test system: MCF7 breast
# HOP-62 NSCLC = test system: HOP-62 NSCLC
# HCT-15 colon = test system: HCT-15 colon
# UO-31 renal = test system: UO-31 renal
# RXF 393 renal = test system: RXF 393 renal
# U251 CNS = test system: U251 CNS
# M14 melanoma = test system: M14 melanoma
# SNB-19 CNS = test system: SNB-19 CNS
# HS 578T breast = test system: HS 578T breast
# CAKI-1 renal = test system: CAKI-1 renal
# NCI-H23 lung = test system: NCI-H23 lung
# UACC-257 melanoma = test system: UACC-257 melanoma
# K-562 leukemia = test system: K-562 leukemia
# UACC-62 melanoma = test system: UACC-62 melanoma
# SK-MEL-5 melanoma = test system: SK-MEL-5 melanoma
# MALME-3M melanoma = test system: MALME-3M melanoma
# SR leukemia = test system: SR leukemia
# ACHN renal = test system: ACHN renal
# A549 NSCLC = test system: A549 NSCLC
# SK-OV-3 ovarian = test system: SK-OV-3 ovarian
# COLO 205 colon = test system: COLO 205 colon
# OVCAR-4 ovarian = test system: OVCAR-4 ovarian
# DU-145 prostate = test system: DU-145 prostate
# CCRF-CEM leukemia = test system: CCRF-CEM leukemia
# PC-3 prostate = test system: PC-3 prostate
# BT-549 breast = test system: BT-549 breast
# SK-MEL-2 melanoma = test system: SK-MEL-2 melanoma
# TK-10 renal = test system: TK-10 renal
# SF-268 CNS = test system: SF-268 CNS
# MDA-MB-435 = test system: MDA-MB-435
# IGROV1 ovarian = test system: IGROV1 ovarian
# NCI/ADR-RES ovarian = test system: NCI/ADR-RES ovarian
# HT29 colon = test system: HT29 colon
# OVCAR-8 ovarian = test system: OVCAR-8 ovarian
# SK-MEL-28 melanoma = test system: SK-MEL-28 melanoma
# LOX IMVI melanoma = test system: LOX IMVI melanoma
# OVCAR-5 ovarian = test system: OVCAR-5 ovarian
# HL-60(TB) leukemia = test system: HL-60(TB) leukemia
# NCI-H226 lung = test system: NCI-H226 lung
# SF-295 CNS = test system: SF-295 CNS
# KM12 colon = test system: KM12 colon
# MDA-MB-468 breast = test system: MDA-MB-468 breast
# SW-620 colon = test system: SW-620 colon
# MDA-MB-231 breast = test system: MDA-MB-231 breast
# SN12C renal = test system: SN12C renal
# RPMI-8226 leukemia = test system: RPMI-8226 leukemia
# NCI-H522 lung = test system: NCI-H522 lung
# 786-0 renal = test system: 786-0 renal
# HCC-2998 colon = test system: HCC-2998 colon
# HCT-116 colon = test system: HCT-116 colon
# MOLT-4 leukemia = test system: MOLT-4 leukemia
# NCI-H460 lung = test system: NCI-H460 lung
# A498 renal = test system: A498 renal
# SF-539 CNS = test system: SF-539 CNS
# EKVX NSCLC = test system: EKVX NSCLC
structure (smiles),measurement,setting,value
C=C1CC[C@H](C(=C)C)[C@H]2C=C(C)C(=O)C3=C(C(=O)[C@@](C)(O)C3)[C@H]12,GI50,OVCAR-3 ovarian,1200 nM
same,TGI,OVCAR-3 ovarian,2480 nM
same,GI50,MCF7 breast,639 nM
same,TGI,MCF7 breast,2020 nM
same,GI50,HOP-62 NSCLC,1760 nM
same,TGI,HOP-62 NSCLC,3270 nM
same,GI50,HCT-15 colon,349 nM
same,TGI,HCT-15 colon,1400 nM
same,GI50,UO-31 renal,1120 nM
same,TGI,UO-31 renal,2320 nM
same,GI50,RXF 393 renal,1510 nM
same,TGI,RXF 393 renal,2990 nM
same,GI50,U251 CNS,1090 nM
same,TGI,U251 CNS,2380 nM
same,GI50,M14 melanoma,1340 nM
same,TGI,M14 melanoma,2820 nM
same,GI50,SNB-19 CNS,1650 nM
same,TGI,SNB-19 CNS,3010 nM
same,GI50,HS 578T breast,3030 nM
same,TGI,HS 578T breast,17700 nM
same,GI50,CAKI-1 renal,1570 nM
same,TGI,CAKI-1 renal,2980 nM
same,GI50,NCI-H23 lung,1630 nM
same,TGI,NCI-H23 lung,3260 nM
same,GI50,UACC-257 melanoma,1350 nM
same,TGI,UACC-257 melanoma,2760 nM
same,GI50,K-562 leukemia,611 nM
same,TGI,K-562 leukemia,13100 nM
same,GI50,UACC-62 melanoma,1230 nM
same,TGI,UACC-62 melanoma,2480 nM
same,GI50,SK-MEL-5 melanoma,1480 nM
same,TGI,SK-MEL-5 melanoma,2830 nM
same,GI50,MALME-3M melanoma,1470 nM
same,TGI,MALME-3M melanoma,2880 nM
same,GI50,SR leukemia,324 nM
same,TGI,SR leukemia,2060 nM
same,GI50,ACHN renal,1480 nM
same,TGI,ACHN renal,2800 nM
same,GI50,A549 NSCLC,1270 nM
same,TGI,A549 NSCLC,3000 nM
same,GI50,SK-OV-3 ovarian,1870 nM
same,TGI,SK-OV-3 ovarian,3830 nM
same,GI50,COLO 205 colon,1740 nM
same,TGI,COLO 205 colon,3250 nM
same,GI50,OVCAR-4 ovarian,1550 nM
same,TGI,OVCAR-4 ovarian,2990 nM
same,GI50,DU-145 prostate,1230 nM
same,TGI,DU-145 prostate,2480 nM
same,GI50,CCRF-CEM leukemia,2260 nM
same,TGI,CCRF-CEM leukemia,5250 nM
same,GI50,PC-3 prostate,1670 nM
same,TGI,PC-3 prostate,3330 nM
same,GI50,BT-549 breast,1450 nM
same,TGI,BT-549 breast,2770 nM
same,GI50,SK-MEL-2 melanoma,1460 nM
same,TGI,SK-MEL-2 melanoma,2880 nM
same,GI50,TK-10 renal,1790 nM
same,TGI,TK-10 renal,3220 nM
same,GI50,SF-268 CNS,1580 nM
same,TGI,SF-268 CNS,3360 nM
same,GI50,MDA-MB-435,1550 nM
same,TGI,MDA-MB-435,3140 nM
same,GI50,IGROV1 ovarian,1280 nM
same,TGI,IGROV1 ovarian,2880 nM
same,GI50,NCI/ADR-RES ovarian,1950 nM
same,TGI,NCI/ADR-RES ovarian,5520 nM
same,GI50,HT29 colon,1070 nM
same,TGI,HT29 colon,3230 nM
same,GI50,OVCAR-8 ovarian,1460 nM
same,TGI,OVCAR-8 ovarian,3690 nM
same,GI50,SK-MEL-28 melanoma,1630 nM
same,TGI,SK-MEL-28 melanoma,2990 nM
same,GI50,LOX IMVI melanoma,369 nM
same,TGI,LOX IMVI melanoma,1500 nM
same,GI50,OVCAR-5 ovarian,1520 nM
same,TGI,OVCAR-5 ovarian,2980 nM
same,GI50,HL-60(TB) leukemia,853 nM
same,TGI,HL-60(TB) leukemia,3760 nM
same,GI50,NCI-H226 lung,1470 nM
same,TGI,NCI-H226 lung,3060 nM
same,GI50,SF-295 CNS,1480 nM
same,TGI,SF-295 CNS,2840 nM
same,GI50,KM12 colon,1460 nM
same,TGI,KM12 colon,3270 nM
same,GI50,MDA-MB-468 breast,528 nM
same,TGI,MDA-MB-468 breast,1940 nM
same,GI50,SW-620 colon,1380 nM
same,TGI,SW-620 colon,3110 nM
same,GI50,MDA-MB-231 breast,1390 nM
same,TGI,MDA-MB-231 breast,2740 nM
same,GI50,SN12C renal,1190 nM
same,TGI,SN12C renal,2550 nM
same,GI50,RPMI-8226 leukemia,1160 nM
same,TGI,RPMI-8226 leukemia,3420 nM
same,GI50,NCI-H522 lung,1180 nM
same,TGI,NCI-H522 lung,2530 nM
same,GI50,786-0 renal,1750 nM
same,TGI,786-0 renal,3170 nM
same,GI50,HCC-2998 colon,1280 nM
same,TGI,HCC-2998 colon,2540 nM
same,GI50,HCT-116 colon,801 nM
same,TGI,HCT-116 colon,2070 nM
same,GI50,MOLT-4 leukemia,1210 nM
same,TGI,MOLT-4 leukemia,3750 nM
same,GI50,NCI-H460 lung,1480 nM
same,TGI,NCI-H460 lung,4040 nM
same,GI50,A498 renal,3560 nM
same,TGI,A498 renal,8500 nM
same,GI50,SF-539 CNS,1410 nM
same,TGI,SF-539 CNS,2710 nM
same,GI50,EKVX NSCLC,1700 nM
same,TGI,EKVX NSCLC,3300 nM
